Test results as given in PubChem BioAssay AID2060905 (Molecular Pharmacology Branch, DTP, NCI, 2025).
pIC50: −log10 of the molar value.

System: 282377-053-R-J1-PDC complex spheroid viability
Test: Anticancer human tumor 282377-053-R-J1-PDC patient-derived colon adenocarcinoma cell line growth inhibition [RAS]
Details: for pIC50: curve of first compound; for viability, T/C: stronger effect = lower value
Outline: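 Tumour cells grown as complex spheroids with HUVEC endothelial cells and mesenchymal stem cells, treated with RAS pathway inhibitor combinations. Each agent spans half-log steps from near clinical Cmax, or 10 microM where Cmax is unknown.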
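Further: spheroids exposed to agents for seven days before readout.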
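Wherever viability, T/C is given: luminescence viability as percent of DMSO vehicle control wells.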

Q: `CCc1c2c(nc3ccc(O)cc13)-c1cc3c(c(=O)n1C2)COC(=O)[C@]3(O)CC` + CCn1c(-c2cccnc2C(C)OC)c2c3cc(ccc31)N1CCOC(CC(NC(=O)C(C(C)C)N(C)C(=O)C3(F)CCN(C(=O)C#CC(C)(C)N(C)C)CC3)C(=O)N3CCCC(N3)C(=O)OCC(C)(C)C2)C1 was tested. Which pIC50 (second compound 0.000949 µM) did it give?
A: The pIC50 was under 6.52.

Q: What about the pIC50 (second compound 0.003 µM) of the same molecule?
A: Its pIC50 is under 6.52.

Q: What about the pIC50 (second compound 0.00949 µM) of the same molecule?
A: Its pIC50 is under 6.52.

Q: What about the pIC50 (second compound 0.03 µM) of the same molecule?
A: Its pIC50 is under 6.52.

Q: What about the pIC50 (second compound 0.0949 µM) of the same molecule?
A: The pIC50 was under 6.52.

Q: And the pIC50 (second compound 0.3 µM)?
A: The pIC50 was 6.74.

Q: What about the viability, T/C (second compound 0.000949 µM, first compound 0.000949 µM) of the same molecule?
A: The viability, T/C was 133%.

Q: What about the viability, T/C (second compound 0.000949 µM, first compound 0.003 µM) of the same molecule?
A: Its viability, T/C is 105%.

Q: What about the viability, T/C (second compound 0.000949 µM, first compound 0.00949 µM) of the same molecule?
A: Its viability, T/C is 161%.

Q: And the viability, T/C (second compound 0.000949 µM, first compound 0.03 µM)?
A: Its viability, T/C is 108%.

Q: And the viability, T/C (second compound 0.000949 µM, first compound 0.0949 µM)?
A: Its viability, T/C is 95.5%.

Q: What about the viability, T/C (second compound 0.000949 µM, first compound 0.3 µM) of the same molecule?
A: The viability, T/C was 90.6%.

Q: What about the viability, T/C (second compound 0.003 µM, first compound 0.000949 µM) of the same molecule?
A: The viability, T/C was 111%.

Q: And the viability, T/C (second compound 0.003 µM, first compound 0.003 µM)?
A: Its viability, T/C is 125%.

Q: And the viability, T/C (second compound 0.003 µM, first compound 0.00949 µM)?
A: The viability, T/C was 131%.

Q: What about the viability, T/C (second compound 0.003 µM, first compound 0.03 µM) of the same molecule?
A: The viability, T/C was 99.1%.

Q: What about the viability, T/C (second compound 0.003 µM, first compound 0.0949 µM) of the same molecule?
A: The viability, T/C was 122%.

Q: What about the viability, T/C (second compound 0.003 µM, first compound 0.3 µM) of the same molecule?
A: The viability, T/C was 98.8%.

Q: What about the viability, T/C (second compound 0.00949 µM, first compound 0.000949 µM) of the same molecule?
A: The viability, T/C was 129%.

Q: What about the viability, T/C (second compound 0.00949 µM, first compound 0.003 µM) of the same molecule?
A: The viability, T/C was 110%.

Q: What about the viability, T/C (second compound 0.00949 µM, first compound 0.00949 µM) of the same molecule?
A: The viability, T/C was 142%.

Q: And the viability, T/C (second compound 0.00949 µM, first compound 0.03 µM)?
A: The viability, T/C was 115%.

Q: What about the viability, T/C (second compound 0.00949 µM, first compound 0.0949 µM) of the same molecule?
A: Its viability, T/C is 98%.

Q: What about the viability, T/C (second compound 0.00949 µM, first compound 0.3 µM) of the same molecule?
A: Its viability, T/C is 85.1%.

Q: What about the viability, T/C (second compound 0.03 µM, first compound 0.000949 µM) of the same molecule?
A: The viability, T/C was 95%.

Q: What about the viability, T/C (second compound 0.03 µM, first compound 0.003 µM) of the same molecule?
A: Its viability, T/C is 115%.

Q: And the viability, T/C (second compound 0.03 µM, first compound 0.00949 µM)?
A: Its viability, T/C is 146%.

Q: And the viability, T/C (second compound 0.03 µM, first compound 0.03 µM)?
A: Its viability, T/C is 139%.

Q: What about the viability, T/C (second compound 0.03 µM, first compound 0.0949 µM) of the same molecule?
A: Its viability, T/C is 110%.

Q: What about the viability, T/C (second compound 0.03 µM, first compound 0.3 µM) of the same molecule?
A: The viability, T/C was 94.4%.

Q: What about the viability, T/C (second compound 0.0949 µM, first compound 0.000949 µM) of the same molecule?
A: The viability, T/C was 119%.

Q: What about the viability, T/C (second compound 0.0949 µM, first compound 0.003 µM) of the same molecule?
A: Its viability, T/C is 143%.

Q: What about the viability, T/C (second compound 0.0949 µM, first compound 0.00949 µM) of the same molecule?
A: The viability, T/C was 163%.

Q: And the viability, T/C (second compound 0.0949 µM, first compound 0.03 µM)?
A: The viability, T/C was 136%.

Q: And the viability, T/C (second compound 0.0949 µM, first compound 0.0949 µM)?
A: The viability, T/C was 110%.

Q: And the viability, T/C (second compound 0.0949 µM, first compound 0.3 µM)?
A: Its viability, T/C is 82.4%.

Q: What about the viability, T/C (second compound 0.3 µM, first compound 0.000949 µM) of the same molecule?
A: The viability, T/C was 96.7%.

Q: What about the viability, T/C (second compound 0.3 µM, first compound 0.003 µM) of the same molecule?
A: Its viability, T/C is 135%.

Q: What about the viability, T/C (second compound 0.3 µM, first compound 0.00949 µM) of the same molecule?
A: The viability, T/C was 149%.

Q: What about the viability, T/C (second compound 0.3 µM, first compound 0.03 µM) of the same molecule?
A: The viability, T/C was 117%.

Q: And the viability, T/C (second compound 0.3 µM, first compound 0.0949 µM)?
A: The viability, T/C was 69.8%.

Q: What about the viability, T/C (second compound 0.3 µM, first compound 0.3 µM) of the same molecule?
A: Its viability, T/C is 35%.
